From ChEMBL document CHEMBL4190203, “Effects of Cinnamoyloxy-mammeisin from Geopropolis on Osteoclast Differentiation and Porphyromonas gingivalis-Induced Periodontitis” (J Nat Prod, 2017)
The source made the active and inactive calls. The calls are words filed in the database; no cut-off is given here.

Columns and labels:
BMMC [1] = test: Reduction in M-CSF/RANKL-induced V-ATPase mRNA levels in C57BL/6 mouse BMMC at 20 uM after 3 days by RT-qPCR analysis; assay type: functional, cell-based
BMMC [2] = test: Downregulation of M-CSF/RANKL-induced CTSK protein expression levels in C57BL/6 mouse BMMC at 20 uM after 3 days by Western blot analysis; assay type: functional, cell-based
BMMC [3] = test: Reduction in M-CSF/RANKL-induced Ctsk mRNA levels in C57BL/6 mouse BMMC at 20 uM after 3 days by RT-qPCR analysis; assay type: functional, cell-based
BMMC [4] = test: Downregulation of M-CSF/RANKL-induced integrin alphaV protein expression levels in C57BL/6 mouse BMMC at 20 uM after 3 days by Western blot analysis; assay type: functional, cell-based
BMMC [5] = test: Reduction in M-CSF/RANKL-induced Trap/Acp5 mRNA levels in C57BL/6 mouse BMMC at 20 uM after 3 days by RT-qPCR analysis; assay type: functional, cell-based
BMMC [6] = test: Inhibition of M-CSF/RANKL-induced osteoclast differentiation in C57BL/6 mouse BMMC assessed as decrease in multinucleated TRAP+ cells after 3 days by TRAP staining-based assay; assay type: functional, cell-based
BMMC [7] = test: Reduction in M-CSF/RANKL-induced Itgb3 mRNA levels in C57BL/6 mouse BMMC at 20 uM after 3 days by RT-qPCR analysis; assay type: functional, cell-based
[8] = target: Matrix metalloproteinase-9 (Mus musculus) (UniProt P41245); test: Inhibition of MMP9 activity in C57BL/6 mouse BMMC at 5 to 20 uM by coomassie blue staining-based gelatin zymography assay; assay type: cell-based
BMMC [9] = test: Inhibition of M-CSF/RANKL-induced matrix resorption capacity in C57BL/6 mouse BMMC at 10 to 20 uM after 4 days in hydroxyapatite-coated plates; assay type: functional, cell-based
BMMC [10] = test: Downregulation of M-CSF/RANKL-induced NFATc1 protein expression levels in C57BL/6 mouse BMMC after 3 days by Western blot analysis; assay type: functional, cell-based
Mus musculus [11] = test: Antiperiodontitic activity in BALB/c mouse model of Porphyromonas gingivalis-induced periodontitis assessed as reduction in maxillary tissue CtsK mRNA levels at 100 ug/kg, id dosed once in 2 days for 30 days; assay type: functional, organism-based
BMMC [12] = test: Cytotoxicity against C57BL/6 mouse BMMC at 5 to 20 uM after 3 days in presence of M-CSF/RANKL by MTT assay; assay type: cell-based; settings: 72 h
Mus musculus [13] = test: Antiperiodontitic activity in BALB/c mouse model of Porphyromonas gingivalis-induced periodontitis assessed as reduction in maxillary tissue Trap/Acp5 mRNA levels at 100 ug/kg, id dosed once in 2 days for 30 days; assay type: functional, organism-based
BMMC [14] = test: Inhibition of M-CSF/RANKL-induced osteoclast differentiation in C57BL/6 mouse BMMC assessed as decrease in multinucleated TRAP+ cells at 20 uM after 3 days by TRAP staining-based assay; assay type: functional, cell-based
BMMC [15] = test: Reduction in M-CSF/RANKL-induced NFATc1 mRNA levels in C57BL/6 mouse BMMC at 20 uM after 3 days by RT-qPCR analysis; assay type: functional, cell-based
Mus musculus [16] = test: Antiperiodontitic activity in BALB/c mouse model of Porphyromonas gingivalis-induced periodontitis assessed as reduction in alveolar bone resorption at 100 ug/kg, id dosed once in 2 days for 30 days; assay type: functional, organism-based
BMMC [17] = test: Reduction in M-CSF/RANKL-induced MMP-9 mRNA levels in C57BL/6 mouse BMMC at 20 uM after 3 days by RT-qPCR analysis; assay type: functional, cell-based
Mus musculus [18] = test: Antiperiodontitic activity in BALB/c mouse model of Porphyromonas gingivalis-induced periodontitis assessed as reduction in maxillary tissue Mmp9 mRNA levels at 100 ug/kg, id dosed once in 2 days for 30 days; assay type: functional, organism-based

Matrix metalloproteinase-9 (Mus musculus), sequence (P41245 whole entry): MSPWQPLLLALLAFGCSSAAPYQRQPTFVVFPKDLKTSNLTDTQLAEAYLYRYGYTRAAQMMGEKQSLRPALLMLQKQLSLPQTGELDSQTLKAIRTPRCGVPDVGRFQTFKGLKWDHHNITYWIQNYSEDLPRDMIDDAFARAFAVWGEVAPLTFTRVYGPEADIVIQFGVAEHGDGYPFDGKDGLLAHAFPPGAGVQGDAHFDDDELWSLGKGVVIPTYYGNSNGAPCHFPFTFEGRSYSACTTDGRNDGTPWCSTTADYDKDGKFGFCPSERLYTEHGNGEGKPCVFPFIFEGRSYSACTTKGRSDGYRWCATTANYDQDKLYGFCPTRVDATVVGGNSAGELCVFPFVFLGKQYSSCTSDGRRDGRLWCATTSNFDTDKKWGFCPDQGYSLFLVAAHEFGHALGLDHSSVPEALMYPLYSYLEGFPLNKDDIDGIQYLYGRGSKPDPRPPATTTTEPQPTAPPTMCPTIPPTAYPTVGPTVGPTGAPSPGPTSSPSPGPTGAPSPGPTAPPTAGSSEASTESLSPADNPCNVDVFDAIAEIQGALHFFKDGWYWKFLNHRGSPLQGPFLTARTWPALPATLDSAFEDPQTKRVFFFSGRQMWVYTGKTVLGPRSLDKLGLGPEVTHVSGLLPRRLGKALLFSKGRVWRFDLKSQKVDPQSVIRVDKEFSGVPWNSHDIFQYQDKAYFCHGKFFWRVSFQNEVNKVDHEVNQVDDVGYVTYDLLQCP

For CC(C)=CCc1c(O)c(C(=O)CC(C)COC(=O)/C=C/c2ccccc2)c(O)c2c(-c3ccccc3)cc(=O)oc12 (stereo not drawn), the Activity (BMMC [1]) was “Active”, the Activity (BMMC [2]) was “Active” and the Activity (BMMC [3]) was “Active”. The Activity (BMMC [4]) was “Active”, the Activity (BMMC [5]) was “Active” and the inhibition (BMMC [6]) was “Dose-dependent effect”. The Activity (BMMC [7]) was “Active”, the inhibition [8] was “Active” and the inhibition (BMMC [9]) was “Active”. For the same compound, the Activity (BMMC [10]) was “Dose-dependent effect”, the Activity (Mus musculus [11]) was “Active” and the Activity (BMMC [12]) was “Non-Toxic”. For the same compound, the Activity (Mus musculus [13]) was “Active”, the inhibition (BMMC [14]) was “Active” and the Activity (BMMC [15]) was “Active”. For the same compound, the Activity (Mus musculus [16]) was “Active”, the Activity (BMMC [17]) was “Active” and the Activity (Mus musculus [18]) was “inactive”.
